Experiments:
[1] = target: T1, Ba/F3-FGFR1-transfected cells (Homo sapiens, UniProt P11362); assay: Ba/F3-FGFR1 (minus IL3) cellular proliferation assay, Alamar Blue; type: cell-based
T1 construct: BAF3-FGFR1 (MIN IL3) pIC50; other: minus IL3
How it was run: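 Ba/F3 cells transfected with FGFR1 (20000 cells/well) were plated onto compound in phenol red-free RPMI-1640 with 10% FBS, 2 mM L-glutamine and gentamycin, then kept 24 h at 37 °C, 5% CO2. Alamar Blue (resazurin) was added for 4 h and fluorescence read at ex 540/em 590 nm.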

[2] = system: Ba/F3-KDR-transfected cells; assay: Ba/F3-KDR (plus IL3) cellular proliferation assay, counterscreen with 10 ng/ml murine IL3; type: cell-based; settings: plus IL3 (10 ng/ml murine IL3, counterscreen); read-out: BAF3-KDR (PLUS IL3) pIC50 (converted)
How it was run: (§1)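 Cells grown with test compound at 37° C and 5% CO2 for 24 hours were given a resazurin/ferricyanide/ferrocyanide reagent for 4 hours before fluorescence (540/590 nm) was recorded.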

KDR (h) = KDR (h) (Homo sapiens, UniProt P35968); assay: KDR (VEGFR2) (enzymatic assay), TR-FRET; type: biochemical; settings: read-out: VEGFR 2 (KDR) pIC50 (converted)
How it was run: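 Low-ATP (3 μM) TR-FRET kinase assay using 500 nM Btn-Flt3 peptide and 150 ng/ml enzyme, run 2 h at room temperature with 6 mM MnCl2 and 0.1 mM Na3VO4. Signal from Eu-anti-P-Tyr/SA-XL-665 is recorded in RFU.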

[3] = target: T2, Ba/F3-FGFR3-transfected cells (Homo sapiens, UniProt P22607); assay: Ba/F3-FGFR3 (minus IL3) cellular proliferation assay, Alamar Blue; type: cell-based
T2 construct: BAF3-FGFR3 (MIN IL3) pIC50; other: minus IL3
How it was run: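 Ba/F3 cells transfected with FGFR3 were seeded at 20000 cells/well in phenol red-free RPMI-1640 with 10% FBS over compound in DMSO and kept 24 hours at 37° C, 5% CO2. Alamar Blue (resazurin) was then added for 4 hours and fluorescence read at ex 540/em 590 nm. The counterscreen repeated this with 10 ng/ml murine IL3.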

[4] = target: T3, Ba/F3-KDR-transfected cells (Homo sapiens, UniProt P35968); assay: Ba/F3-KDR (minus IL3) cellular proliferation assay, Alamar Blue; type: cell-based
T3 construct: BAF3-KDR (MIN IL3) pIC50; other: minus IL3
How it was run: as §1

FGFR3 (h) = FGFR3 (h) (Homo sapiens, UniProt P22607); assay: FGFR3 (enzymatic assay), TR-FRET; type: biochemical; settings: read-out: FGFR 3 pIC50 (converted)
Description: Time-Resolved Fluorescence Resonance Energy Transfer (TR-FRET) signal (ex340 nm.

FGFR4 (h) = FGFR4 (h) (Homo sapiens, UniProt P22455); assay: FGFR4 (enzymatic assay), TR-FRET; type: biochemical; settings: FGFR 4 pIC50, enzymatic assay
[5] = system: Ba/F3-FGFR1-transfected cells; assay: Ba/F3-FGFR1 (plus IL3) cellular proliferation assay, counterscreen with 10 ng/ml murine IL3; type: cell-based; settings: plus IL3 (10 ng/ml murine IL3, counterscreen); read-out: BAF3-FGFR1 (PLUS IL3) pIC50 (converted)
How it was run: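 Proliferation read-out: resazurin-based Alamar Blue fluorescence (540/590 nm) after 4 h, following 24 h compound treatment of 20000 Ba/F3-FGFR1 cells per well in 10% FBS RPMI at 37° C. IL3 counterscreen used the same protocol plus 10 ng/ml murine IL3.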

FGFR2 (h) = FGFR2 (h) (Homo sapiens, UniProt P21802); assay: FGFR2 (enzymatic assay), TR-FRET; type: biochemical; settings: enzymatic assay; read-out: FGFR 2 pIC50 (converted)
How it was run: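 hFGFR2 150 ng/ml; Btn-Flt3 500 nM; ATP 0.4 μM; 50 mM HEPES pH 7.5, 6 mM MnCl2, 1 mM DTT, 0.1 mM Na3VO4, 0.01% Triton-X-100; 1% DMSO final.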

T2 sequence (P22607 whole entry, change not shown): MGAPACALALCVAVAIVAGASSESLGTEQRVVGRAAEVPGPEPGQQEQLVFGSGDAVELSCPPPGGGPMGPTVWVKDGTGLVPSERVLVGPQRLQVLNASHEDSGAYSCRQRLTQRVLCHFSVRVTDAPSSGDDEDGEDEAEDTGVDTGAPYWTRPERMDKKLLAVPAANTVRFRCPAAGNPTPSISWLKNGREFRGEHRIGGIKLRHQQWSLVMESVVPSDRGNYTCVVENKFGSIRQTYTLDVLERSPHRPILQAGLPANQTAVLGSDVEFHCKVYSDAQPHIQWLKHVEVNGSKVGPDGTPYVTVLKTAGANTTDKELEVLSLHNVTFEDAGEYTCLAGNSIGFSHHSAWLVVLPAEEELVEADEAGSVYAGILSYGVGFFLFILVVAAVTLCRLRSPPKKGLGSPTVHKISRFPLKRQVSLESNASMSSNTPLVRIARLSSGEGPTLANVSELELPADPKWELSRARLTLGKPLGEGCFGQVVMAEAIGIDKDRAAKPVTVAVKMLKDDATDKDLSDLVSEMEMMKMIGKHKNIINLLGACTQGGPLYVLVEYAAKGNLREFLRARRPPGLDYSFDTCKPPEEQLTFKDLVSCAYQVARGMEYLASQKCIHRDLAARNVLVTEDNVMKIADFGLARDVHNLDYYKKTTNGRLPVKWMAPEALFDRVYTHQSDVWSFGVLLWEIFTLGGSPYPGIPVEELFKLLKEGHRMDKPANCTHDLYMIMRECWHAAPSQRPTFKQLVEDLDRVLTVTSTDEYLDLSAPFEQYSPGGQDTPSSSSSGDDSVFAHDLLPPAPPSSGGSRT
Chain of FGFR3 (h) (P22607 23-806): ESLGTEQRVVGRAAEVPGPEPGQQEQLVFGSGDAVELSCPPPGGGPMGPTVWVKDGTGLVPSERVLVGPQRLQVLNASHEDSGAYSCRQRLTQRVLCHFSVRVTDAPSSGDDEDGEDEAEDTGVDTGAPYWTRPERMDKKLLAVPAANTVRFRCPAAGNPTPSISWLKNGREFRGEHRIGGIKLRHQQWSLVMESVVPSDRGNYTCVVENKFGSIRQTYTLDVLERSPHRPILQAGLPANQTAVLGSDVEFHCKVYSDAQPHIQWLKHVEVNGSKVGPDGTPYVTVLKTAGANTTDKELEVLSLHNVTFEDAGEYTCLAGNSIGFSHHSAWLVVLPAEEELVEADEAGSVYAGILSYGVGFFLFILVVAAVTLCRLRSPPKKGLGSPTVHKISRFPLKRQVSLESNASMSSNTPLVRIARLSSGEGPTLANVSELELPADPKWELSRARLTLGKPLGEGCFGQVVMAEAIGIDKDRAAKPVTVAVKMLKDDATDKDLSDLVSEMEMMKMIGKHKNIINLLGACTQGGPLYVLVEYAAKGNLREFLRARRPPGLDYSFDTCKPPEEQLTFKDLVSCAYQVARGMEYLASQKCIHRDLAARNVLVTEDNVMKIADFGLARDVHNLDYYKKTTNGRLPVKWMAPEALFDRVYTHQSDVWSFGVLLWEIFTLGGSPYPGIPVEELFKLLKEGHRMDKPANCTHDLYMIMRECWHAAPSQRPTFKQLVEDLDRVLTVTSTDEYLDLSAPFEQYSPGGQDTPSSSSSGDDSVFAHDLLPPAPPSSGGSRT
Chain of FGFR2 (h) (P21802 22-821): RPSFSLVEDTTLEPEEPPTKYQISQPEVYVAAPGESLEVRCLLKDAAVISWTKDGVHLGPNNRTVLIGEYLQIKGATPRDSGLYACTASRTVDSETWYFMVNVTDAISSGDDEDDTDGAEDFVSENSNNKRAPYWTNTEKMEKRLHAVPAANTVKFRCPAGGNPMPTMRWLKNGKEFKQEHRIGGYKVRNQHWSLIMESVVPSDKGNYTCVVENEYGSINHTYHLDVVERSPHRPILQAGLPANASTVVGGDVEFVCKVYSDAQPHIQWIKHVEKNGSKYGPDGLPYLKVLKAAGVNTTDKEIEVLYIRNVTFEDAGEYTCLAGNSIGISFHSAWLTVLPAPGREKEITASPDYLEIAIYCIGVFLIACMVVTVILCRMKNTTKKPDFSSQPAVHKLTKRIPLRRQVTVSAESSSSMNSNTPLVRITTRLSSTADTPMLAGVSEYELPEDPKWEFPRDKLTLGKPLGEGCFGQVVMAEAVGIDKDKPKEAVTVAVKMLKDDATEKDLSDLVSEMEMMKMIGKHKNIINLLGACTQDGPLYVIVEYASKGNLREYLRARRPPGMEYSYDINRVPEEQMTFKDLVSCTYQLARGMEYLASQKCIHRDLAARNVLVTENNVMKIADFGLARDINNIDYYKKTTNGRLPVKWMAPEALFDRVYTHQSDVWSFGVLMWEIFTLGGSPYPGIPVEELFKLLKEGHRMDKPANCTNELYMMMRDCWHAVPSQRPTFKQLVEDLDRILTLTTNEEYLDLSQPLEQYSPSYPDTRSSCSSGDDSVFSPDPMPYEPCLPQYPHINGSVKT
T1 sequence (P11362 whole entry, change not shown): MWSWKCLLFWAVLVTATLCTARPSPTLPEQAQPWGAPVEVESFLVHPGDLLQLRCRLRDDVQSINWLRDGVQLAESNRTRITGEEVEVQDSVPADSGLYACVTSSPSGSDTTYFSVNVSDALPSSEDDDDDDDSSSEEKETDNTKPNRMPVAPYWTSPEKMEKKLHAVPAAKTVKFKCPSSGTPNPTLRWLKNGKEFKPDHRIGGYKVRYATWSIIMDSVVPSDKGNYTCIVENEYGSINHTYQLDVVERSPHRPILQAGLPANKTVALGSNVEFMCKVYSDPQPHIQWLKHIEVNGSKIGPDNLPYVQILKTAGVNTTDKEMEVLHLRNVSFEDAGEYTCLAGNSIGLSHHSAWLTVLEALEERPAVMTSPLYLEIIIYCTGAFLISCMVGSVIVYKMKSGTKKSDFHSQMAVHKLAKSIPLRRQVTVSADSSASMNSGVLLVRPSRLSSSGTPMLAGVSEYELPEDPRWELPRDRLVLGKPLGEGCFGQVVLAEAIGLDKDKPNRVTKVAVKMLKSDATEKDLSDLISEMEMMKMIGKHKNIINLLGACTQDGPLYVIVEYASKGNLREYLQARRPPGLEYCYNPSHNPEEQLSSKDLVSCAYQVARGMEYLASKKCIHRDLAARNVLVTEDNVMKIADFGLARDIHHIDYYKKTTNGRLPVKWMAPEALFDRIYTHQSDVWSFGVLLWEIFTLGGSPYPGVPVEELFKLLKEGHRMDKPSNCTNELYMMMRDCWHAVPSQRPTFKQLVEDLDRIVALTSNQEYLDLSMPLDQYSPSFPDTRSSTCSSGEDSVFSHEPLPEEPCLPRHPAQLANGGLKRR
Chain of FGFR4 (h) (P22455 22-802): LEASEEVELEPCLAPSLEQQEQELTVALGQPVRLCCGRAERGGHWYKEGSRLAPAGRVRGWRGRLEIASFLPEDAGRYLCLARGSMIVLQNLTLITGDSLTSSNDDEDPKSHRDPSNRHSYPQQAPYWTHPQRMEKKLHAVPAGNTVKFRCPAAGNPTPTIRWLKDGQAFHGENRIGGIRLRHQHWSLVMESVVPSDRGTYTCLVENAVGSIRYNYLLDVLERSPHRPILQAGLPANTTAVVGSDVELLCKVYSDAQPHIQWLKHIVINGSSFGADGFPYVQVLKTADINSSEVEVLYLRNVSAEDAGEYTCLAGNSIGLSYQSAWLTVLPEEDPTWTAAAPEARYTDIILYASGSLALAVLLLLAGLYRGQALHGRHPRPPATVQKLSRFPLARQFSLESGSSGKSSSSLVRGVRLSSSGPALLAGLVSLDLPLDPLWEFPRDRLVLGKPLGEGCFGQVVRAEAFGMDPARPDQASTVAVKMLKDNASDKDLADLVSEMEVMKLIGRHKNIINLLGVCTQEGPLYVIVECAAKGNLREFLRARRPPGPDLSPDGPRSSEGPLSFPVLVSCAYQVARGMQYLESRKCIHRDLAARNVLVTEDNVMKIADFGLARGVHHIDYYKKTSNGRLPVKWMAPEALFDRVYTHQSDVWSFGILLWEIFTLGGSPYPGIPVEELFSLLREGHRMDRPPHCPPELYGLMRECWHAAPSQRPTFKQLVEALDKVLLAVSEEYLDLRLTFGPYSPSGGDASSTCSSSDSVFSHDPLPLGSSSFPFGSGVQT

| Structure (SMILES) | BAF3-FGFR1 (MIN IL3) pIC50 [1] | IC50 [2] [nM] | IC50 (KDR (h)) [nM] | BAF3-FGFR3 (MIN IL3) pIC50 [3] | BAF3-KDR (MIN IL3) pIC50 [4] | IC50 (FGFR3 (h)) [nM] | IC50 (FGFR4 (h)) [nM] | IC50 [5] [nM] | IC50 (FGFR2 (h)) [nM] |
| --- | --- | --- | --- | --- | --- | --- | --- | --- | --- |
| COc1cc(OC)cc(N(Cc2noc(C)n2)c2ccc3ncc(-c4cnn(C)c4)nc3n2)c1 [Compound 186] | 7.03 | > 10000 | 45.7 | ~7.11 | 5.20 | 2.69 | 12 | > 10000 | 2.57 |
| COc1cc(OC)cc(N(Cc2nnc(N)o2)c2ccc3ncc(-c4cnn(C)c4)nc3n2)c1 [Compound 188] | 6.78 | > 10000 | 33.9 | ~7.15 | 5.63 | 0.933 | 1.62 | > 10000 | 1.35 |
| COc1cc(OC)c(F)c(N(Cc2ncc[nH]2)c2ccc3ncc(-c4cn[nH]c4)nc3n2)c1 [Compound 190] | 8.19 | > 10000 | 7.94 | ~8.15 | 6.46 | 1.23 | 1.12 | > 10000 | 1.29 |
| COc1cc(OC)c(F)c(N(Cc2ncc[nH]2)c2ccc3ncc(-c4cccnc4)nc3n2)c1 [Compound 190a] | 7.94 | > 10000 | 28.8 | 7.72 | 5.82 | 2 | 2.95 | > 10000 | 2.04 |
| COc1cc(OC)c(F)c(N(CC2CCC(=O)N2CCO)c2ccc3ncc(-c4cnn(C)c4)nc3n2)c1 (stereo not drawn) [Compound 194] | 6.30 | > 10000 | 126 | 6.16 | 5.18 | 8.51 | 44.7 | > 10000 | 12 |
| COc1cc(OC)c(F)c(N(Cc2cnn(C)c2)c2ccc3ncc(-c4cnn(C)c4)nc3n2)c1 [Compound 195] | 8.08 | > 10000 | 11.5 | 8.09 | 5.79 | 0.871 | 0.871 | > 10000 | 2.04 |
| COc1cc(/N=c2\ccc3ncc(-c4cnn(C)c4)nc3n2Cc2cnn(C)c2)c(F)c(OC)c1 [Compound 196] | 8.95 | > 10000 | 3.98 | ~8.66 | 7.41 | 0.912 | ~0.891 | > 10000 | 2.14 |
| COc1cc(OC)cc(N(Cc2nn[nH]n2)c2ccc3ncc(-c4cnn(C)c4)nc3n2)c1 [Compound 197] | <5 | > 10000 | 145 | <5 | <5 | 14.5 | 34.7 | > 10000 | 11.2 |
| COc1cc(OC)cc(N(Cc2ncc[nH]2)c2ccc3ncc(-c4ccn(C)c4)nc3n2)c1 [Compound 198] | 8.48 | > 10000 | 4.57 | ~8.15 | 6.68 | 0.646 | 0.661 | > 10000 | 1.07 |
| COc1cc(OC)c(F)c(N(Cc2ncc[nH]2)c2ccc3ncc(-c4ccccc4)nc3n2)c1 [Compound 200] | 8.37 | > 10000 | ~9.55 | ~8.13 | 5.99 | 1.45 | 1.48 | > 10000 | 1.7 |
| COc1cc(OC)cc(N(Cc2ncc[nH]2)c2ccc3ncc(-c4ccncc4)nc3n2)c1 [Compound 202] | 7.47 | > 10000 | 61.7 | ~7.67 | 5.24 | 1.62 | 2.82 | > 10000 | 1.74 |
| COc1cc(OC)cc(N(Cc2nncn2CCO)c2ccc3ncc(-c4cnn(C)c4)nc3n2)c1 [Compound 204] | 6.15 | > 10000 | 302 | 6.09 | <5 | 15.1 | 60.3 | > 10000 | 11 |
| COc1cc(OC)cc(N(Cc2ncn(CCO)n2)c2ccc3ncc(-c4cnn(C)c4)nc3n2)c1 [Compound 205] | 6.31 | > 10000 | 38.9 | 6.20 | 5.45 | 14.5 | 47.9 | > 10000 | 5.13 |
| CCOCc1c[nH]c(CN(c2ccc3ncc(-c4cnn(C)c4)nc3n2)c2cc(OC)cc(OC)c2F)n1 [Compound 206] | 7.89 | > 10000 | 27.5 | ~8.12 | 5.84 | 2.51 | 2.95 | > 10000 | 4.17 |
| COc1cc(OC)c(F)c(N(Cc2ncc[nH]2)c2ccc3ncc(-c4cnn(C(CO)CCl)c4)nc3n2)c1 (stereo not drawn) [Compound 209] | 8.71 | > 10000 | 7.59 | 8.25 | 6.57 | 1.32 | 1.12 | > 10000 | 2.4 |

Source: patent publication US9309242B2, “Substituted pyrido[2,3-b]pyrazines as FGFR kinase inhibitors” (priority 2011, dated 2016)
